Measured values from the NIST ThermoML archive (doi:10.1021/je900482x).
Numbers after ± are expanded uncertainties.

test: isobaric coefficient of expansion; conditions: 318.15 K; 5000 kPa; Liquid; Microcalorimeter

Point of comparison: `CCn1cc[n+](C)c1.O=S(=O)([N-]S(=O)(=O)C(F)(F)F)C(F)(F)F`, “isobaric coefficient of expansion” value 0.000649 ± 1.6e-05 1/K. Against it:
- CCn1cc[n+](C)c1.F[B-](F)(F)F [1-ethyl-3-methylimidazolium tetrafluoroborate] — lower, 0.000589 ± 1.4e-05 1/K
- CCCCCC[n+]1ccn(C)c1.O=S(=O)([N-]S(=O)(=O)C(F)(F)F)C(F)(F)F — higher, 0.000654 ± 1.6e-05 1/K
- CCCCCCCC[n+]1ccn(C)c1.F[B-](F)(F)F [1-methyl-3-octylimidazolium tetrafluoroborate] — lower, 0.000599 ± 1.2e-05 1/K
- CCCC[n+]1cccc(C)c1.F[B-](F)(F)F [1-butyl-3-methylpyridinium tetrafluoroborate] — lower, 0.00058 ± 1.4e-05 1/K
- CCCCCCn1cc[n+](C)c1.F[B-](F)(F)F [1-hexyl-3-methylimidazolium tetrafluoroborate] — lower, 0.000599 ± 1.5e-05 1/K

same assay, conditions: 318.15 K; 10000 kPa; Liquid; Microcalorimeter

Point of comparison: `CCn1cc[n+](C)c1.O=S(=O)([N-]S(=O)(=O)C(F)(F)F)C(F)(F)F`, “isobaric coefficient of expansion” value 0.000644 ± 1.6e-05 1/K. Against it:
- CCn1cc[n+](C)c1.F[B-](F)(F)F [1-ethyl-3-methylimidazolium tetrafluoroborate] — lower, 0.000585 ± 1.4e-05 1/K
- CCCCCC[n+]1ccn(C)c1.O=S(=O)([N-]S(=O)(=O)C(F)(F)F)C(F)(F)F — higher, 0.000647 ± 1.6e-05 1/K
- CCCCCCCC[n+]1ccn(C)c1.F[B-](F)(F)F [1-methyl-3-octylimidazolium tetrafluoroborate] — lower, 0.000594 ± 1.2e-05 1/K
- CCCC[n+]1cccc(C)c1.F[B-](F)(F)F [1-butyl-3-methylpyridinium tetrafluoroborate] — lower, 0.000578 ± 1.4e-05 1/K
- CCCCCCn1cc[n+](C)c1.F[B-](F)(F)F [1-hexyl-3-methylimidazolium tetrafluoroborate] — lower, 0.000594 ± 1.5e-05 1/K

same assay, conditions: 318.15 K; 15000 kPa; Liquid; Microcalorimeter

Point of comparison: `CCCCCC[n+]1ccn(C)c1.O=S(=O)([N-]S(=O)(=O)C(F)(F)F)C(F)(F)F`, “isobaric coefficient of expansion” value 0.000637 ± 1.6e-05 1/K. Against it:
- CCn1cc[n+](C)c1.F[B-](F)(F)F [1-ethyl-3-methylimidazolium tetrafluoroborate] — lower, 0.000576 ± 1.4e-05 1/K
- CCCCCCCC[n+]1ccn(C)c1.F[B-](F)(F)F [1-methyl-3-octylimidazolium tetrafluoroborate] — lower, 0.000585 ± 1.2e-05 1/K
- CCCC[n+]1cccc(C)c1.F[B-](F)(F)F [1-butyl-3-methylpyridinium tetrafluoroborate] — lower, 0.000573 ± 1.4e-05 1/K
- CCCCCCn1cc[n+](C)c1.F[B-](F)(F)F [1-hexyl-3-methylimidazolium tetrafluoroborate] — lower, 0.000585 ± 1.4e-05 1/K
- CCn1cc[n+](C)c1.O=S(=O)([N-]S(=O)(=O)C(F)(F)F)C(F)(F)F — lower, 0.000634 ± 1.6e-05 1/K

same assay, conditions: 318.15 K; 20000 kPa; Liquid; Microcalorimeter

Point of comparison: `CCCC[n+]1cccc(C)c1.F[B-](F)(F)F` [1-butyl-3-methylpyridinium tetrafluoroborate], “isobaric coefficient of expansion” value 0.000565 ± 1.4e-05 1/K. Against it:
- CCn1cc[n+](C)c1.F[B-](F)(F)F [1-ethyl-3-methylimidazolium tetrafluoroborate] — higher, 0.000569 ± 1.4e-05 1/K
- CCCCCC[n+]1ccn(C)c1.O=S(=O)([N-]S(=O)(=O)C(F)(F)F)C(F)(F)F — higher, 0.000623 ± 1.5e-05 1/K
- CCCCCCCC[n+]1ccn(C)c1.F[B-](F)(F)F [1-methyl-3-octylimidazolium tetrafluoroborate] — higher, 0.000573 ± 1.1e-05 1/K
- CCCCCCn1cc[n+](C)c1.F[B-](F)(F)F [1-hexyl-3-methylimidazolium tetrafluoroborate] — higher, 0.000573 ± 1.4e-05 1/K
- CCn1cc[n+](C)c1.O=S(=O)([N-]S(=O)(=O)C(F)(F)F)C(F)(F)F — higher, 0.000623 ± 1.5e-05 1/K

same assay, conditions: 318.15 K; 25000 kPa; Liquid; Microcalorimeter

Point of comparison: `CCn1cc[n+](C)c1.F[B-](F)(F)F` [1-ethyl-3-methylimidazolium tetrafluoroborate], “isobaric coefficient of expansion” value 0.000563 ± 1.4e-05 1/K. Against it:
- CCCCCC[n+]1ccn(C)c1.O=S(=O)([N-]S(=O)(=O)C(F)(F)F)C(F)(F)F — higher, 0.000615 ± 1.5e-05 1/K
- CCCCCCCC[n+]1ccn(C)c1.F[B-](F)(F)F [1-methyl-3-octylimidazolium tetrafluoroborate] — higher, 0.000566 ± 1.1e-05 1/K
- CCCC[n+]1cccc(C)c1.F[B-](F)(F)F [1-butyl-3-methylpyridinium tetrafluoroborate] — lower, 0.00056 ± 1.4e-05 1/K
- CCCCCCn1cc[n+](C)c1.F[B-](F)(F)F [1-hexyl-3-methylimidazolium tetrafluoroborate] — higher, 0.000566 ± 1.4e-05 1/K
- CCn1cc[n+](C)c1.O=S(=O)([N-]S(=O)(=O)C(F)(F)F)C(F)(F)F — higher, 0.000615 ± 1.5e-05 1/K
